Measured values taken from patent EP0486809A2, “Use of suramin against TNF-related diseases” (priority 1990, dated 1992).

Tests used:
human TNFa [1] = biological target: T1, human TNFa (Homo sapiens, UniProt P01375); experiment: Inhibition by suramin of the cytotoxic activity of TNFa on untreated mouse LM cells (MTT); format: cell-based; details: measured after 2 days, Figure 6
Method: The experiments depicted in Figure 6 were similar to the experiments of Figure 5, except that actinomycin D was omitted from the incubation mixture. In this case the cytotoxic activity of human TNFa was measured after 2 days. […] The degree of inhibition was dependent on the activity of human TNFa employed, i.e. doses of human TNFa exerting high cytotoxic activity were less inhibitable than those exerting lower cytotoxic activity.
3) Inhibition by suramin of the cytotoxic activity of TNF a on untreated mouse LM cells.
On day O logarithmically growing mouse LM cells (Rubin, B.Y. et al. J. Exp. Med. 162 : 1099 (1985)) are trypsinized, centrifuged and resuspended at a final concentration of 5 x 10^4 cells/ml of Eagle's minimun essential medium supplemented with 5% FCS and 1% glutamine (complete MEM). […]
The plates are further incubated for 4 hours at 37 °C. Then, supernatants are discarded, 200 µl of dimethylsulfoxide (DMSO, Farmitalia Carlo Erba) are added to each well and the extent of color development is read on a plate ELISA reader at 570 nm. OD values obtained for each TNF a concentration and each TNFa-suramin mixture are expressed as percent (%) of those obtained for the controll wells containing only complete MEM and complete MEM plus each suramin dilution, respectively.

human TNFa [2] = biological target: T1, human TNFa; experiment: Inhibition by suramin of the binding of iodinated human TNFa to K562 cells; set-up: purchased New England Nuclear (NEN), Wilmington, DE; details: for IC50: Figure 1, read-out: Inhibitory concentrations 50 (IC50)
Method: In the experiment depicted in Figure 1 suramin was mixed, at the indicated doses, with 2.5 x 10^-11M, 10^-10M, or 4 x 10^-10M iodinated human TNFa - (New England Nuclear, NEN, Wilmington, DE). The mixtures were then added immediately to K562 cells. The residual binding of TNF a was measured and compared to the binding to K562 cells in the absence or presence of a 100-fold higher dose of "cold" unlabeled human TNFa (Esquire Chemie AG, Zuerich, Switzerland). […] Higher doses of suramin are required to inhibit the binding of higher doses of iodinated TNFa. […]
1) Inhibition by suramin of the binding of iodinated human TNF a to K562 cells.
lodinated human TNFa (NEN, specific activity = 30 - 70 µCi/µg protein) is diluted so to have concentrations of 1.6 x 10-^9 M, 4 x 10^-10M and 10^-10M in RPMI 1640 medium (Flow, Opera, Italy) supplemented with 2% foetal calf serum (FCS, PBI, Milan, Italy) and 14 mM Hepes (Flow). This medium will hereon be referred to as binding medium (BM). "Cold" unlabeled human TNF a (Esquire) is diluted in BM so to have concentrations of 1.6 x 10^-7M, 4 x 10-^8 M and 10^-8M. Suramin (Bayer, Leverkusen, FRG) is dissolved in BM so to have a concentration of 4 mM. Starting from this solution a series of dilutions are set up in BM.
K562 cells (human chronic myelogenous leukemia, ATCC CCL243) are adjusted to a concentration of 2 x 10^6/ml in BM. 100 µl of the cell suspension are then incubated with 50 µl of each iodinated TNFa concentration and with 50 µl BM or 50 µl of a 100 fold higher concentration of "cold" TNF a or 50 µl of each suramin dilution. The mixtures are incubated for 4 hours at […]. Thereafter the cells are centrifuged through a phthalate-dibutyl phthalate oil mixture (1:1,5 vol/vol, Fluka AG, Buchs, Switzerland). Cell-associated radioactivity is determined in a gamma-counter. Data thus obtained are processed by means of an equilibrium binding data analysis program (EBDA, Elsevir Science Publishers, Amsterdam, Netherlands). […]

human TNFa [3] = biological target: T1, human TNFa; experiment: Inhibition by suramin of the binding of iodinated human TNFa to LM cells; set-up: purchased New England Nuclear (NEN), Wilmington, DE; details: binding of 3 x 10^-10M human TNFa to mouse LM cells; Figure 2
Method: The mixtures were then added to mouse LM cells. The residual binding of TNFa was measured and compared to the binding to LM cells in the absence or presence of a 100-fold higher dose of "cold" unlabeled human TNFa. […] For the binding assay, 24-well plates (Costar, Vis- mara Associate, Trezzano sul Naviglio, Italy) are used, that have been seeded the day before with mouse LM cells (Rubin, B.Y. et al. J. Exp. Med. 162: 1099 (1985)), 200.000 cells/well. The medium is discarded and replaced with 100 µl BM supplemented with 0.04% Na N3, 50 µl iodinated human TNF a and 50 µl BM or 50 µl cold TNF a or 50 µl of each suramin dilution. After 4 hours at 4°C cells are washed 4 x with BM, solubilized with 2% SDS and cell-associated radioactivity is determined. Data are processed as described before.

human TNFa [4] = biological target: T1, human TNFa; experiment: Inhibition by suramin of the cytotoxic activity of TNFa on actinomycin D-treated LM cells (MTT); format: cell-based; details: mouse LM cells treated with actinomycin D, measured the day after; Figure 5
Method: In the experiment depicted in Figure 5 different concentrations of human TNFa (Esquire) were incubated, in the absence or presence of different doses of suramin, with mouse LM cells treated with actinomycin D. Treatment with actinomycin D is known to render LM cells more sensitive to the cytotoxic activity of TNFa (Ruff, M.R. and Gifford, G.E., J. lmmunol. 125: 1671 (1980)). The cytotoxic activity of human TNFa was measured the day after.
Inhibition by suramin of the cytotoxic activity of TNF a on actinomycin D - treated LM cells.
The experimental design is similar to that for the assay on untreated LM cells.
The differences are as follows. • 1) 100 µl of a cell-suspension containing 3 x 10^5 cells/ml are added to each well of microtiter plates. • 2) Before setting up the TNFa-cytotoxicity assay, the cells are pretreated for 4 hours at 37 °C with complete MEM (100 µl/well) containing 2 µg/ml actinomycin D (Fluka). • 3) The cytotoxic activity of human TNF a is measured after an incubation period of 24 hours at 37 ° C.

T1 sequence (P01375 77-233 limits assumed): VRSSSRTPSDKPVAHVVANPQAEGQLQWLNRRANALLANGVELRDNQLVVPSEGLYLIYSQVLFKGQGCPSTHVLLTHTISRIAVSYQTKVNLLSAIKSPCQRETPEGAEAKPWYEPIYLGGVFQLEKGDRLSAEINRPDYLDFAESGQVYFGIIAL

IC50 (human TNFa [2]; binding of 2.5 x 10-"M human TNFa to human K562 cells): 78 µM
IC50 (human TNFa [2]; binding of 4 x 10-'°M human TNFa to human K562 cells): 180 µM
IC50 (human TNFa [2]; binding of 10^-10M human TNFa to human K562 cells): 126 µM
inhibition of the binding of TNFa to K562 (human TNFa [2]; sequential addition of suramin and 10^-10M TNFa, K562 cells washed in between, Figure 4): no inhibition
IC50 (human TNFa [3]): 175 µM
Compound: Cc1ccc(C(=O)Nc2ccc(S(=O)(=O)O)c3cc(S(=O)(=O)O)cc(S(=O)(=O)O)c23)cc1NC(=O)c1cccc(NC(=O)Nc2cccc(C(=O)Nc3cc(C(=O)Nc4ccc(S(=O)(=O)O)c5cc(S(=O)(=O)O)cc(S(=O)(=O)O)c45)ccc3C)c2)c1 [suramin, 8,8' - (carbonylbis(imino-3,1-phenylenecarbonylimino (4-methyl-3,1-phenylene)carbonylimino)) bis-1,3 ,5-naphthalenetrisulfonic acid]
inhibition of the cytotoxic activity of human TNFa (human TNFa [1]): inhibited, in a dose- dependent manner
inhibition of the cytotoxic activity of human TNFa (human TNFa [4]): inhibited, in a dose- dependent manner
